The values below come from PubChem BioAssay (NCI).

In this test the test system is MDA-MB-468 breast. The test can be described thus: growth of human tumour cells (NCI), 48 h.

“And” between values parts separate entries of the source, which are not always exact repeats. Identical values can stand only once.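 96-well plates; 48 h exposure; 5 concentrations. Endpoints by linear interpolation between flanking doses. Not reached: highest tested concentration assigned. Abbreviation: GI50, concentration required for 50% inhibition of growth. TGI is the concentration that stops growth completely.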

In the case of `COc1ccc(C(=O)/C=C/c2c(C(F)(F)F)nc3ccccn23)cc1OC`, the GI50 is 1810 nM and the TGI stood at 5.06 µM. The corresponding values for `O=c1oc2ccc(I)cc2c(=O)n1-c1ccc(I)cc1F` are 521 nM and 2.94 µM.

With `C=C1C(=O)O[C@H]2[C@H]1CC/C(CNC(=O)C(C)c1ccc(CC(C)C)cc1)=C\CC[C@@]1(C)O[C@@H]21` (stereo partly specified), the GI50 was 1430 nM and the TGI was determined as 3.12 µM. Take `O=C1/C=C/[C@@H](O)[C@@H]2C[C@@H](O)C[C@H]2/C=C/CCC[C@H](CCc2ccc(NC(=S)Nc3ccc4c(c3)C(=O)OC43c4ccc(O)cc4Oc4cc(O)ccc43)cc2)O1`: the GI50 is 178 nM and the TGI came to 0.449 µM. As to `O=c1[nH][nH]c(=O)c2c(O)c(-c3ccccc3)ncc12`, the GI50 is 25200 nM and 48200 nM; the TGI was 55.8 µM and 235 µM. Consider `COc1ccc(C2CC(c3ccc4ccccc4c3)=NN2c2nc(O)c(C3=c4cc(Cl)ccc4=NC3=O)s2)cc1` (stereo unspecified), for which the GI50 is 21 nM and < 5 nM. For `CN(CCCCCCCCNc1ccnc2ccccc12)Cc1ccc(-c2ccc(-c3ccc(C#N)cc3)s2)cc1`, the GI50 was 69.8 nM and the TGI stood at 1.29 µM.

Turning to `CC[C@H](C)C(=O)O[C@H]1CCC=C2C=C[C@H](C)[C@H](CC[C@@H]3C[C@@H](O)CC(=O)O3)[C@H]21`, the GI50 is 3130 nM and the TGI worked out at 11.6 µM. Regarding `Oc1ccccc1/C=N\Nc1ccccc1`, the GI50 was 4930 nM and the TGI stood at 55.8 µM. On to `CN(C)c1ccc2cc3c(cc2c1)Oc1ccccc1N3.[Cl][Zn][Cl]`, for which the GI50 is 1090 nM and the TGI is 3.15 µM.

`CC1=C[C@H]2O[C@@H]3C[C@H]4OC(=O)/C=C\C=C\[C@H]([C@@H](C)O)OCC/C(C)=C/C(=O)OC[C@@]2(CC1)[C@]4(C)[C@]31CO1`: the GI50 is 3.56 nM and the TGI turned out to be 0.0124 µM. As for `COc1ccc2[nH]cc(C3(c4c[nH]c5ccc(OC)cc45)C(=O)Nc4ccc(Cl)cc43)c2c1`, the GI50 was 2500 nM and the TGI stood at 7.85 µM. Turning to `Fc1ccc(-c2c(-c3ccncc3)[nH]c3cccnc23)cc1`, the GI50 was 3780 nM and the TGI came to 24.7 µM.

On to `COc1ccccc1-c1ccc2c(N)c(C(=O)c3ccc4c(c3)OCO4)sc2n1`, for which the GI50 was 2430 nM and the TGI was 8.64 µM.

With `Cc1ccc2c(c1)C(=O)/C(=C/c1cccc(OCC(=O)c3ccc(Cl)cc3)c1)CS2`, the GI50 is 2410 nM and the TGI amounted to 7.07 µM.

In the case of `Cn1cc(-c2csc(-c3cn(CCCN4CCCCC4)c4ccc(Br)cc34)n2)c2cccnc21`, the GI50 is 1860 nM and the TGI came out at 3.55 µM. `N#Cc1ccc(O)c(C2=NCC(c3ccc(-c4ccccc4)cc3)O2)c1` (stereo unspecified): the GI50 was 256 nM and the TGI came out at 1.81 µM. The corresponding values for `CCCCCCCCCCCCSC1=CC(=O)C=CC1=O` are 7090 nM and more than 34.6 µM. As for `CN(C)CCN(C)c1ccc2ncc(C#Cc3cncc(C(=O)Nc4ccc(CN5CCN(C)CC5)c(C(F)(F)F)c4)c3)n2n1`, the GI50 was 3080 nM and the TGI is 9.91 µM. Turning to `CC(=O)OCC1OC([S-])C(OC(C)=O)C(OC(C)=O)C1OC(C)=O.[Au+].c1ccc(CN2[CH-]N(Cc3ccccc3)C(c3ccccc3)=C2c2ccccc2)cc1`, the GI50 was 1630 nM and 306 nM; the TGI was 3.41 µM and 1.17 µM. `CC[C@H](C)[C@H](NC(=O)[C@H]1CCCCN1C)C(=O)N(C)[C@H](C[C@@H](OC(C)=O)c1nc(C(=O)NC23C4C5C2C2C3C4C52C(=O)OC)cs1)C(C)C` (stereo partly specified): the GI50 is 0.428 nM and < 2.5 nM; the TGI is 0.00695 µM and < 0.0025 µM. On to `CCCn1cc(/C=N\N=C2\C(=O)Nc3ccc(C)cc32)c2ccccc21`, for which the GI50 was 1690 nM and the TGI worked out at 5.78 µM. As for `O=C1c2c(c3c4ccccc4n(CCCCCCN4CCOCC4)c3c3[nH]c4ccccc4c23)C(=O)N1O`, the GI50 is 1970 nM and the TGI worked out at 4.69 µM. In the same order, the values of `O=C(CCN1CCCC1)Nc1ccc2c(Nc3ccc(Br)cc3)c3ccccc3nc2c1` are 1720 nM and 3.27 µM. As for `CCc1c2c(nc3ccc(OC(=O)OCc4ccc(B5OC(C)(C)C(C)(C)O5)cc4)cc13)-c1cc3c(c(=O)n1C2)COC(=O)[C@]3(O)CC`, the GI50 was less than 10 nM and the TGI came to 0.0545 µM. In the same order, the values of `N#Cc1ccc(C(=O)c2cnn(-c3ccc(F)cc3)c2N)cc1` are more than 25000 nM and more than 25 µM.

For `O=C(Nc1cccc(-n2ccc3c(NC(=O)c4ccccc4)nccc32)c1)c1ccc(Cl)c(Cl)c1`, the GI50 was 176 nM and the TGI was 0.903 µM.

With `CCN(CC)CCNc1ccc(N=Nc2cnc3ccccc3c2)c2ccccc12`, the GI50 was 1340 nM and the TGI stood at 2.64 µM. Consider `C#Cc1cccc(Nc2ncnc3ccc(-c4cnc(N)nc4)cc23)c1`, for which the GI50 was 376 nM and the TGI came to 1.77 µM. As to `CCCCNP1(NCCCC)=NP(NCCCC)(NCCCC)=NP(NCCCC)(NCCCC)=NP(NCCCC)(NCCCC)=N1`, the GI50 was 194 nM and the TGI stood at 2.91 µM. As for `COc1ccc(-c2nsc3c2NC(=O)CC3c2cccc(F)c2)cc1` (stereo unspecified), the GI50 is 1940 nM and the TGI was 6.98 µM. Regarding `CCN(CC)CCOc1ccc(NC(=O)C(C(C)C)N2C(=O)/C(=C/c3ccc(Br)cc3)SC2=S)cc1` (stereo unspecified), the GI50 is 1920 nM and the TGI was found to be 3.94 µM. As to `CN(C)C[C@@H]1CCn2cc(c3ccccc32)C2=C(C(=O)NC2=O)c2cn(c3ccccc23)CCO1`, the GI50 is 2170 nM and the TGI was more than 10 µM. For `O=C(C(=O)c1cccnc1)c1cccnc1`, the GI50 was more than 100000 nM and the TGI is more than 100 µM. Consider `Cc1cnc(-c2ccc(-c3ccc(NC(=O)Nc4cccc(C(F)(F)F)c4)cc3F)c3c2C(=O)NC3)[nH]1`, for which the GI50 was 12600 nM and the TGI came out at 31.1 µM. In the same order, the values of `COC1/C=C/OC2(C)Oc3c(C)c(O)c4c(O)c(c(/C=N/N(c5ccccc5)c5ccccc5)c(O)c4c3C2=O)NC(=O)C(C)=C/C=C/C(C)C(O)C(C)C(O)C(C)C(OC(C)=O)C1C` (stereo unspecified) are 1840 nM and 7.5 µM.

As for `COc1cc(C(=O)c2cnc(-c3ccc4cc[nH]c4c3)[nH]2)cc(OC)c1OC`, the GI50 is 32.7 nM and the TGI amounted to 2.66 µM. In the same order, the values of `COc1ccc(Cl)cc1Nc1nc(C(F)(F)F)ccc1C(=O)N/N=C/c1ccccc1Cl` are 1850 nM and 18.5 µM. On to `CN1CCN(C(=O)[C@@]2(C)CC[C@]3(C)CC[C@]4(C)C(=CC[C@@H]5[C@@]6(C)CC[C@H](OC(=O)c7cccnc7)C(C)(C)[C@@H]6CC[C@]54C)[C@@H]3C2)CC1`, for which the GI50 was 1710 nM and the TGI is 3.51 µM.

Turning to `O=C1NC(c2cccc3ccccc23)Nc2ccccc21` (stereo unspecified), the GI50 is 127 nM and the TGI is more than 100 µM. As for `COc1ccc2c(c1)C(=O)/C(=C/c1cccc(OCC(=O)c3ccc([N+](=O)[O-])cc3)c1)CO2`, the GI50 was 1580 nM and the TGI was found to be 3.51 µM.
